Holding throughout (experiment): growth of human tumour cells (NCI), 48 h
Test [1] relates to MOLT-4 leukemia.
In test [2] the test system is HS 578T breast.
The test system of test [3] is ACHN renal.
Test [4] relates to HT29 colon.
Test [5] concerns KM12 colon.
Test [6] deals with SK-OV-3 ovarian.
The test system of test [7] is NCI-H23 lung.
The subject of test [8] is HOP-92 NSCLC.
In test [9] the test system is SF-539 CNS.
Test [10] deals with HCC-2998 colon.

The structures appear in SMILES notation.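 Interpolation was linear, between the two tested concentrations surrounding the appropriate level; five concentrations were tested over 48 hours in 96-well plates. GI50 = concentration required for 50% inhibition of growth. Definition used: TGI = concentration required for complete inhibition of growth.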

Turning to `CCCC(=O)NNc1[nH]c(-c2ccc(OC)cc2)cc1C(=O)OCC`, the GI50 in test [1] is 6.52 µM; in test [2], 21.7 µM; in test [3] it was 10.9 µM; in test [4], 17.4 µM; in test [5] it was 37.7 µM; in test [6], greater than 100 µM. For the same molecule, the GI50 was 14.9 µM in [7], 18.6 µM in [8] and 19.3 µM in test [9]. Further, the TGI in test [1] is greater than 100 µM; in test [2] it was 57.9 µM; in [3] it was 22.9 µM; in [4] it was 34.3 µM; in test [5] it was greater than 100 µM; in test [6], greater than 100 µM. Also, the results for the TGI in test [7], in [8] and in test [9] were 38 µM, 35.5 µM and 37 µM, respectively.
As for `CC(C)=CCC/C(C)=C/CC/C(=C/COP(=O)(OCc1ccc([N+](=O)[O-])o1)N(C)CCCCCl)C(C)(C)C` (centres undefined), the GI50 is 1.82 µM in test [1]; 12.5 µM in test [4]; 3.63 µM in test [5]; 0.0486 µM in test [10]; 18.1 µM in test [6]; 12.6 µM in [7]. Moreover, the GI50 was 12.8 µM in [8] and 4.25 µM in test [9]. The TGI in test [1] is greater than 100 µM; in test [2] it was 1.06 µM; in test [4], 38.9 µM; in [5], 14.9 µM; in test [10], 2.29 µM; in test [6], 38.7 µM. Further, the values for the TGI in test [7], in [8] and in test [9] were 34.2 µM, 25.4 µM and 10.6 µM, respectively.
As for `COC1CC2CCC(C)[C@](O)(O2)C(=O)C(=O)N2CCCCC2C(=O)OC(C(C)CC2CCC(O)C(OC)C2)CC(=O)C(C)C=C(C)C(OC(=O)CN(C)C)C(OC)C(=O)C(C)CC(C)/C=C/C=C/C=C\1C` (some centres undefined), the TGI was determined as 16.9 µM in test [2]; 19.6 µM in test [3]; 20.2 µM in [4]; 23.1 µM in [5]; 20 µM in test [6]; 24.3 µM in [7]. Also, the TGI in test [8] stood at 21.6 µM; in test [9], 12.7 µM.
`CC(=O)OCC1OC(S[As](C)C)C(OC(C)=O)C1OC(C)=O` (centres undefined): the GI50 was 0.177 µM in test [1]; 0.319 µM in test [2]; 0.215 µM in test [3]; 2 µM in test [5]; 0.255 µM in test [10]; 1.14 µM in [6]. Also, the GI50 in test [7] was 0.551 µM; in [8], 0.328 µM; in test [9], 0.226 µM. The TGI in test [1] was found to be 0.765 µM; in [2], 0.841 µM; in test [3], 0.831 µM; in test [5] it was 13.6 µM; in test [10], 1.76 µM; in test [6] it was 7.71 µM. The TGI in test [7] turned out to be 3.63 µM; in [8], 2.57 µM; in test [9] it was 0.907 µM.
As for `CCOC(=O)c1c(Cl)c2c(n1Cc1cc(OC)cc(OC)c1)-c1oncc1CCC2`, the GI50 is 0.512 µM in test [1]; 0.451 µM in [2]; 1.54 µM in test [3]; 0.314 µM in [4]; 0.346 µM in [5]; 15.4 µM in test [10]. Also, the results for the GI50 in [6], in test [7] and in test [8] were 0.4 µM, 0.607 µM and 0.335 µM, respectively. The TGI was greater than 100 µM in test [1]; greater than 100 µM in [2]; greater than 100 µM in [3]; 68 µM in test [4]; greater than 100 µM in test [5]; greater than 100 µM in test [10]. In addition, the TGI was 49.6 µM in test [6], greater than 100 µM in test [7] and 28.6 µM in [8].
For the molecule `NC(=O)Oc1cc(OC(N)=O)cc(N(CCCl)CCCl)c1`, the GI50 in test [1] is 2.18 µM; in test [2] it was 23.2 µM; in [4], 10.8 µM; in test [5], 14.1 µM; in test [10], 16.9 µM; in [6], 13.1 µM. Further, the GI50 in [7] was 6.12 µM; in [8], 0.849 µM; in [9], 1.65 µM. The TGI was greater than 100 µM in test [1]; 76.3 µM in test [2]; 51.4 µM in test [4]; 36.7 µM in test [5]; 61.9 µM in test [10]; greater than 100 µM in test [6]. Further, the TGI in [7] worked out at 63 µM; in test [8], 7.87 µM; in [9] it was 5.96 µM.
In the case of `CN1CCN(Cc2ccc(Nc3ncc(Cl)c(Nc4ccccc4S(=O)(=O)N(C)C)n3)cc2)CC1`, the GI50 in [2] is 0.0984 µM; in [4], 0.0308 µM; in [5], 0.0244 µM; in test [6], 0.219 µM; in test [7] it was 0.0338 µM; in test [8], 0.0999 µM. Moreover, in test [9], the GI50 was 0.114 µM. In addition, the TGI in test [2] was 1.18 µM; in test [4], 0.577 µM; in [5], greater than 100 µM; in test [6] it was greater than 100 µM; in test [7], 0.358 µM; in test [8], 1.68 µM. Further, the TGI in [9] stood at 0.343 µM.
As to `O=C(/C=C\Sc1nccc(C(F)(F)F)n1)c1ccc(Br)cc1`, the GI50 in test [1] is 4.44 µM; in [2], 40.5 µM; in test [3], 15.9 µM; in [4], 19.6 µM; in test [5], 38.1 µM; in test [10], 12.5 µM. Besides, the GI50 was greater than 100 µM in [6], 22.8 µM in test [7] and 23.3 µM in test [9]. Further, the TGI was 16.2 µM in test [1]; greater than 100 µM in test [2]; 29.7 µM in test [3]; 41.6 µM in test [4]; greater than 100 µM in test [5]; 32.6 µM in test [10]. Besides, the TGI is greater than 100 µM in [6], 52.6 µM in [7] and 69.4 µM in [9].
